Patent US8815221B2, “Composition used for skin whitening, plant extracted skin whitening composition and composition having a skin whitening effect” (Industrial Technology Research Institute, priority 2009, dated 2014)
Values joined by “and” are separate entries in the source; they are usually repeats but may differ in a detail not shown here. Identical values can stand only once.

What was measured:
Tyrosinase (Sigma T3824) = target: T1, Tyrosinase (Sigma T3824) (Agaricus bisporus, UniProt C7FF04); assay: Tyrosinase inhibition test; assay type: biochemical; settings: L-Dopa substrate; for IC50: read-out: 50% tyrosinase inhibitory concentration (IC50) (converted); for inhibition at 100 µg/mL / Tyrosinase inhibiting rate (%) (100 μg/ml): concentration of 100 μg/ml; for inhibition at 100 µg/mL: read-out: Tyrosinase inhibiting rate (%) (100 μg/ml); for inhibition at 125 µg/mL: concentration of 125 μg/ml, read-out: Tyrosinase inhibiting rate
T1 construct: purchased Sigma T3824
Method: Tyrosinase Inhibition Test
1. A tyrosinase solution using Tyrosinase (Sigma T3824) was prepared, wherein after diluted with a 0.1 M phosphate buffer, a 0.1 U/μl tyrosinase solution was obtained.
2. A L-Dopa solution using L-Dopa (Sigma D9628) was prepared, wherein after diluted with a 0.1 M phosphate buffer, a 1 mM L-Dopa solution was obtained and then was placed a dark environment.
3. A test sample solution was prepared comprising 10 mg/ml of a sample solution diluted with 100% of DMSO. Then the test sample solution was further diluted for require concentrations using a 0.1 M phosphate buffer.
4. 50 μl/well of the prepared test sample solution mentioned above was added into the wells of a 96 well plate (note that the same diluted concentration of DMSO for the test sample solution was also added into the wells of a 96 well plate and used for the blank group) and then 90 μl/well of the prepared 0.1 U/μl tyrosinase solution mentioned above was added thereto (the dC control group was added the 0.1 M phosphate buffer but not the 0.1 U/μl tyrosinase solution). The 96 well plate was placed under a temperature of 37° C. and mixed at 450 rpm for 5 minutes and then placed in an ELISA reader (Molecular Devices M2). The wave length of the ELISA reader was set at 492 nm to determine absorbance values of the solutions in the 96 well plate, wherein two absorbance values were determined and the average value therefrom was used as a background value. Next, 60 μl/well of the prepared 1 mM L-Dopa solution mentioned above was added to the 96 well plate (the dD control group was added the 0.1 M phosphate buffer not the 1 mM L-Dopa solution) and then the 96 well plate was placed under a temperature of 37° C. in a dark environment and mixed at 450 rpm for 15 minutes and then placed in a ELISA reader (Molecular Devices M2). The wave length of the ELISA reader was set at 492 nm to determine absorbance values of the solutions in the 96 well plate, wherein two absorbance values were determined and the average value therefrom was used as a measurement value. After the background value was subtracted from the measurement value, the tyrosinase inhibiting rate of the sample was calculated. The formula for calculating the tyrosinase inhibiting rate of the sample is shown in the following: (A−A0)−(B−B0)−dC−dD/(A−A0)×100% […]
A: absorbance value of the blank group
B: absorbance value of the sample
A0: background value of the blank group
B0: background value of the sample dC: absorbance variation for the sample only reacted with the L-Dopa dD: absorbance variation for the sample only reacted with the tyrosinase

Mouse melanoma B16-F0 = assay: Melanin inhibition test (melanin content analysis); assay type: cell-based; settings: concentration of 100 μg/ml, B16 cells, 48 hours, read-out: Melanin content inhibiting rate
Method: Mouse melanoma B16-F0 (ATCC CRL-6322, bought from Food Industry Research and Development Institute (FIRDI) (331 Shih-Pin Road, Hsinchu, 300 Taiwan R.O.C.)) was cultured in a medium (Dulbecco's MEM, DMEM) containing 10% fetal bovine serum and 1% penicillin-streptomycin under a temperature of 37° C., in a 5% CO2 incubator.
2. Melanin Content Analysis
Inhibition of B16 Cell Melanin by Extracts:
After a test sample was added to the B16 cells in the medium for 48 hours, the medium was removed. The B16 cells were washed twice with the PBS buffer and then 300 μl of a 1N NaOH which was preheated at a temperature of 70° C. was added to the B16 cells and the B16 cells were, placed in a 60° C. incubator for 60 minutes. Next, 200 μl of the 1N NaOH which had been added to the B16 cells mention above was added to a 96 well plate to determined the absorbance value at 405 nm. The formula for calculating the melanin content is shown in the following: Melanin content=(M/M0)×100%
M: absorbance value for B16 cells being treated with sample
M0: absorbance value for B16 cells not being treated with sample

T1 sequence (C7FF04 1-392 limits assumed): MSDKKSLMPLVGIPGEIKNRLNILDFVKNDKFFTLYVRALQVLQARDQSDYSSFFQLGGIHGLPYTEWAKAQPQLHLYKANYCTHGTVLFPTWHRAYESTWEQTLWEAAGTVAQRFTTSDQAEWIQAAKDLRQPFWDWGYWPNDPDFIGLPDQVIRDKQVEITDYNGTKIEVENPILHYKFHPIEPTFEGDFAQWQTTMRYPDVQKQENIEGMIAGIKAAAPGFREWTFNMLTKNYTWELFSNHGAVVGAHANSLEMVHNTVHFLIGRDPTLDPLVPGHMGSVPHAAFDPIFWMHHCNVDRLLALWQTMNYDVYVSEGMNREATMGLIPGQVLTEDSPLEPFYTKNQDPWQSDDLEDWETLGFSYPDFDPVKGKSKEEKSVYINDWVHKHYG

Row | IC50 (Tyrosinase (Sigma T3824)) | inhibition at 100 µg/mL (Tyrosinase (Sigma T3824)) [%] | inhibition at 125 µg/mL (Tyrosinase (Sigma T3824)) [%] | Tyrosinase inhibiting rate (%) (100 μg/ml) (Tyrosinase (Sigma T3824); listed as Structure (III)) | Tyrosinase inhibiting rate (%) (100 μg/ml) (Tyrosinase (Sigma T3824)) | Tyrosinase inhibiting rate (%) (100 μg/ml) (Tyrosinase (Sigma T3824); listed as compound 1) | Structure (SMILES) | inhibition at 100 µg/mL (Mouse melanoma B16-F0) [%]
1 | 335 µM | 15 ± 1.7 | 29.2 ± 2 | – | – | – | COc1cc(/C=C/C(=O)NCCCCN(CCCNC(=O)/C=C/c2ccc(O)c(OC)c2)C(=O)/C=C/c2ccc(O)c(OC)c2)ccc1O [Compound 2] | –
2 | 29.4 µM and < 30.1 µM | 62.2 ± 27.2 | 74.5 ± 16.1 | about 63% | – | – | O=C(/C=C/c1ccc(O)c(O)c1)NCCCCN(CCCNC(=O)/C=C/c1ccc(O)c(O)c1)C(=O)/C=C/c1ccc(O)c(O)c1 [Compound 4] | –
3 | 752 µM | 10.4 ± 0.1 | 13.2 ± 1.1 | – | – | – | O=C(/C=C/c1ccccc1O)NCCCCN(CCCNC(=O)/C=C/c1ccccc1O)C(=O)/C=C/c1ccccc1O [Compound 3] | –
4 | < 63.4 µM and 62 µM | ~62 | – | – | 61.2 ± 2.5 | about 61.2±2.5% | O=C(/C=C/c1ccc(O)cc1)NCCCCN(CCCNC(=O)/C=C/c1ccc(O)cc1)C(=O)/C=C/c1ccc(O)cc1 [Compound 1] | ~19.9
